Counter-ions that a name gives are not always drawn. Like-named read-outs stand apart in the source and are kept apart here.
What was measured:
Format in all cases: cell-based
GluR6 kainate receptor = molecular target: T1, GluR6 kainate receptor (Rattus norvegicus, UniProt P42260); experiment: Kainate-induced currents, Xenopus oocytes injected with GluR6 cRNA
T1 construct: expressed in transfected cells; host or cells: Xenopus oocytes injected with GluR6 cRNA (concanavalin A treated)
Text: (§1) Plasmids were obtained from the following individuals: Dr. Suzanne Zukin (Albert Einstein College of Medicine, Bronx, N.Y.), NR1100; Dr. Shigetada Nakanishi (Kyoto University Faculty of Medicine, Kyoto, Japan), NR2A; Dr. Stephen Heinemann (Salk Institute, San Diego, Calif.), GluR1 (flop), GluR3 (flop), and GluR6. Plasmids were linearized with BamH1 (NR1100), XhoI (NR2A, GluR1, GluR3) or XbaI (GluR6) prior to in vitro transcription with T3 (GluR1, GluR3, GluR6) or T7 (NR1100, NR2A) RNA polymerase using the Message Machine kit (Ambion, Austin, Tex.). […] RNA solutions (50-70 nl) were injected into oocytes for delivery of NR1100 (5 ng), NR1100:NR2A (1:10 ng), GluR1 (5 ng). GluR3 (5 ng), or GluR6 (20 ng). Oocytes were incubated in ND96 at 18-20° C. for 3-7 days prior to electrophysiological recording.
(§2) Steroid solutions were prepared as 70-100 mM frozen stocks in dimethyl sulfoxide (DMSO). The final DMSO concentration of all recording solutions was between 0.1% to 0.5% and was constant within an experiment.
(§3) Perfusion control and data acquisition were carried out using an automated oocyte electrophysiology workstation that was developed for the rapid collection of concentration-response data and real-time waveform analysis (Yaghoubi et al., Soc. Neurosci. Abstr. 20: 1109 (1995)). This system is implemented on a Macintosh IIci computer (Apple Computer, Cupertino, Calif.) equipped with MacA-DIOS II data acquisition and control hardware (GW Instruments, Somerville, Mass.). Drug application is controlled by the computer through a series of valves, using custom-written software based on the SuperScope II development environment, improving the efficiency and reproducibility of data collection. Experiments were carried out using an Axoclamp-2A voltage clamp amplifier (Axon Instruments, Foster City, Calif.) in two-electrode voltage clamp mode. Intracellular microelectrodes (1-3 MΩ) were filled with 3 M KCl. […] Membrane potential was clamped at −60 to −70 mV and stepped to −100 mV at the start of data acquisition unless otherwise stated. […] Current and voltage recordings were digitized at 100 Hz for analysis. GluR6 injected oocytes were treated for 10 min with 10 μg/ml concanavalin A to prevent fast desensitization.
(§4) Results are expressed as mean±S.E.M. Statistical comparisons were made using Student's t-test.

NR1111/NR2A = experiment: NMDA-induced currents of NR1 splice variants, Xenopus oocytes, Example 4
Experimental: Overnight cultures (500 ml) of transformed bacterial cells were prepared in order to grow sufficient quantities for maxiprep isolation of the plasmid CDNA. Maxipreps were done using a Sorvall RC-5B ultracentrifuge, Qiagen columns and cDNA was quantitated with spectrophotometry (OD260 and OD260/ OD280 ratio). The resulting plasmid cDNA was linearized by digestion with an appropriate restriction enzyme that cleaves distal to the cDNA insert (XhoI for NR2A or NotI for NR1100, NR1000, NR1111, NR1011, NR1101, NR1001). […] The samples were stored at −20° C. until use.
In vitro transcription was performed using the Ambion mMessage mMachine kit with T7 (NR1100, NR1000, NR1111, NR1011, NR1101, NR1001) RNA polymerase. The reaction was assembled on ice and allowed to incubate at 37° C. for 1-2 hr. The resulting mRNA was precipitated (reaction termination) using lithium chloride/5 mM EDTA solution and dissolved in RNase-free H2O. The concentration (OD260) and OD260/OD280 ratio (should be more than 1.5) was determined by spectrophotometer. The yield of mRNA was generally 15-30 μg. mRNA was stored at −80° C. until use.
Intracellular recording microelectrodes were fabricated from 100 μl borosilicate glass disposable micropipettes using a 2-step protocol on a standard horizontal Flaming-Brown micropipette puller.

GluR1 AMPA receptor = molecular target: T2, GluR1 AMPA receptor (Rattus norvegicus, UniProt P19490); experiment: Kainate-induced currents, Xenopus oocytes injected with GluR1 cRNA
T2 construct: expressed in transfected cells; host or cells: Xenopus oocytes injected with GluR1 cRNA
T2 sequence (P19490 19-907): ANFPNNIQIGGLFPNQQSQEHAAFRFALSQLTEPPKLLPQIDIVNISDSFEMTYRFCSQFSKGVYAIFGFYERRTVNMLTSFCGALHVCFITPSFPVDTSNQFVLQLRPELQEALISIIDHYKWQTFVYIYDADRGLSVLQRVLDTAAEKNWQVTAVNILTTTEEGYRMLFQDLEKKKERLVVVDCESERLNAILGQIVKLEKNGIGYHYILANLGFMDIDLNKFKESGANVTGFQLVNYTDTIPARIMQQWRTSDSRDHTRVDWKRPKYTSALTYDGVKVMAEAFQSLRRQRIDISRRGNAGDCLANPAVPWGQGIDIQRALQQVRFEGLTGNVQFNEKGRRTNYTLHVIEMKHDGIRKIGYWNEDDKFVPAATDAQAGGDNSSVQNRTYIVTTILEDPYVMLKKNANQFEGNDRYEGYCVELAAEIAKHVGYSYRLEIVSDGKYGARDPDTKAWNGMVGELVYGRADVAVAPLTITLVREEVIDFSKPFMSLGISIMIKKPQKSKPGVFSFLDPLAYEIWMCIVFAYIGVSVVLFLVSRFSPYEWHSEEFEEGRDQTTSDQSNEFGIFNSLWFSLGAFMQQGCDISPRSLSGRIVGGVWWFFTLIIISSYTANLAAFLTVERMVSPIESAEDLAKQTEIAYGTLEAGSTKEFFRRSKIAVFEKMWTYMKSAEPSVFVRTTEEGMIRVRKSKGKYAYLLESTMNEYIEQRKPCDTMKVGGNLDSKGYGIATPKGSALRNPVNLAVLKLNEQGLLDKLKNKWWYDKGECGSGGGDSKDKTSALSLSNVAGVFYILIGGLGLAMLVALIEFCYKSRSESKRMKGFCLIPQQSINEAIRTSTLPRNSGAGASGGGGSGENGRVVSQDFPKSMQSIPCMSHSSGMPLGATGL
Text: as §1, §2, §3, §4

[1] = test system: primary cultures of rat hippocampal neurons; experiment: NMDA-induced neuronal death, trypan blue exclusion
[2] = acute 15 min NMDA exposure, +100 μM 3α5βS
[3] = acute 15 min NMDA exposure, DMSO vehicle
[4] = chronic 16 hour NMDA exposure, +100 μM 3α5βS
[5] = chronic 16 hour NMDA exposure, DMSO vehicle

T1 sequence (P42260 32-908): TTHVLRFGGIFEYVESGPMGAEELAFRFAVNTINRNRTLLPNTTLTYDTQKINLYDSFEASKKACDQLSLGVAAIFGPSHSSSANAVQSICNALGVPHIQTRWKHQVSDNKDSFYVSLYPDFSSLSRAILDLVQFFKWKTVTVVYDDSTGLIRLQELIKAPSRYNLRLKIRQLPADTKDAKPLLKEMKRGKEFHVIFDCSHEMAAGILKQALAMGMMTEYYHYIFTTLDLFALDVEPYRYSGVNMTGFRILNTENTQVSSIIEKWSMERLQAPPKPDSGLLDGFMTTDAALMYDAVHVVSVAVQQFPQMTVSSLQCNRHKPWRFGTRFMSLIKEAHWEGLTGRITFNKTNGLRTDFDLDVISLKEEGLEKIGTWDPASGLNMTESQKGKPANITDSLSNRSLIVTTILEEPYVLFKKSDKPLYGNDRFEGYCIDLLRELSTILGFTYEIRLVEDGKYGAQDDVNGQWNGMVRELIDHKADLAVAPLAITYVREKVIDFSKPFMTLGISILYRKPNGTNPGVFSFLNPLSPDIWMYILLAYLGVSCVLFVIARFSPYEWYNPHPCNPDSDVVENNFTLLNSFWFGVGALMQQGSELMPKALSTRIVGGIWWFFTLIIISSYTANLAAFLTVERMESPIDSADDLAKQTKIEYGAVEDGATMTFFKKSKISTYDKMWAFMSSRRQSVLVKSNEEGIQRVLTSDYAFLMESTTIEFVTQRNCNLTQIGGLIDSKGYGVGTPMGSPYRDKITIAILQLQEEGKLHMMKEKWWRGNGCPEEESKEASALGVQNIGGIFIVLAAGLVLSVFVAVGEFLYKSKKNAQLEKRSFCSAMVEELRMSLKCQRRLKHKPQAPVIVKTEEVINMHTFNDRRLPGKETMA

## pregnenolone sulfate [PS]
GluR6 kainate receptor; GluR6, 10 μM kainate
  PS nH, inhibition of kainate-induced current: 0.29
GluR6 kainate receptor; GluR6, 500 μM PS
  inhibition of kainate response: 64±2%
GluR6 kainate receptor; GluR6, PS 100 μM
  reduction of kainate Imax: 33%
GluR6 kainate receptor; GluR6, steroid 100 μM
  inhibition of the response to kainate: 42%
GluR6 kainate receptor; GluR6, steroid 100 μM, 10 μM kainate, −100 mV
  Percentage change in kainate response: −42 ± 3(8) %
NR1111/NR2A
  difference in mrc between NR1011/NR2A and NR1111/NR2A: 1.2 fold
NR1111/NR2A; 100 μM PS, pH 6.5
  difference in mrc between NR1011/NR2A and NR1111/NR2A: 1.8 fold
NR1111/NR2A; 100 μM PS, pH 7.5
  difference in mrc between NR1011/NR2A and NR1111/NR2A: 1.6 fold
  difference in percentage potentiation between NR1011/NR2A and NR1111/NR2A: 106%
NR1111/NR2A; 100 μM PS, pH 8.5
  difference in percentage potentiation between NR1011/NR2A and NR1111/NR2A: 91%
GluR1 AMPA receptor; GluR1, 100 μM kainate
  PS Emax, percentage change in kainate-induced current: −99%
GluR1 AMPA receptor; GluR1, 200 μM PS
  inhibition of kainate response: 85±4%
GluR1 AMPA receptor; GluR1, PS 100 μM
  reduction of kainate Imax: 83%
GluR1 AMPA receptor; GluR1, steroid 100 μM
  inhibition of the response to kainate: over 70%
GluR1 AMPA receptor; GluR1, steroid 100 μM, 100 μM kainate, −100 mV
  Percentage change in kainate response: −85 ± 1(8) %

## CC(=O)[C@H]1CC[C@H]2[C@@H]3CC[C@@H]4C[C@H](OS(=O)(=O)O)CC[C@]4(C)[C@H]3CC[C@]12C [3α5βS, 3α5β-pregnanolone sulfate]
GluR6 kainate receptor
  Percentage change in kainate response: −34 ± 5(7) %
NR1111/NR2A; 100 μM 3α5βS
  difference in percentage inhibition between NR1011/NR2A and NR1111/NR2A: 5%
[1]; Rattus norvegicus, Hippocampal neuron, read-out: 3α5βS EC50, inhibition of NMDA-induced neuronal death
  EC50: 45 µM
[1]; acute 30 μM NMDA exposure
  3α5βS nH, inhibition of neuronal death: 2.5
  maximal inhibition (Imax) of cell death: 97%
[1]; acute 30 μM NMDA, steroid 100 μM (3α5β 50 μM)
  inhibition of NMDA-induced neuronal death: nearly eliminates the toxic effects
GluR1 AMPA receptor
  Percentage change in kainate response: −47 ± 12(3) %

## CN[C@H](CC(=O)O)C(=O)O [NMDA, N-methyl-D-aspartate]
[1]; [2]
  NMDA Emax, neuronal death: 63%
  NMDA nH, neuronal death: 1.8
[1]; [3]
  NMDA Emax, neuronal death: 80%
  NMDA nH, neuronal death: 2.1
[1]; [4]
  NMDA Emax, neuronal death: 70%
  NMDA nH, neuronal death: 2.0
[1]; [5]
  NMDA Emax, neuronal death: 86%
  NMDA nH, neuronal death: 1.9
[1]; read-out: NMDA EC50 for neuronal death, acute 15 min NMDA exposure, +100 μM 3α5βS
  EC50: 71 µM
[1]; read-out: NMDA EC50 for neuronal death, acute 15 min NMDA exposure, DMSO vehicle
  EC50: 28 µM
[1]; read-out: NMDA EC50 for neuronal death, chronic 16 hour NMDA exposure, +100 μM 3α5βS
  EC50: 15 µM
